Measured values from patent publication US11034650B2, “Compounds useful for treating a Mannheimia haemolytica or Histophilus somni infection” (Intervet Inc., priority 2016, dated 2021).
Values after ≈ are worked out from the molar mass of the structure shown.

What was measured:
Type in all cases: cell-based
[1] = test system: Pasteurella multocida PM 10775 (080130003051, BRD field isolate); assay: MIC, broth-microdilution (CLSI VET01-A4), strain PM 10775; conditions: Pasteurella multocida strain PM 10775, broth-microdilution; unit assumed
Outline: (§1)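 Broth microdilution per CLSI VET01-A4, using trays with a doubling dilution series of compound; results interpreted per CLSI VET01-S3. MIC taken as lowest concentration with no turbidity visible to the unaided eye.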

[2] = test system: Mannheimia haemolytica MH 6357 (M7/2, reference strain, cattle infection strain); assay: MIC, broth-microdilution (CLSI VET01-A4), strain MH 6357; conditions: Mannheimia haemolytica strain MH 6357, broth-microdilution; unit assumed
Outline: as §1

[3] = test system: Mannheimia haemolytica MH 13093 (XB0472-6014.1, BRD field isolate); assay: MIC, broth-microdilution (CLSI VET01-A4), strain MH 13093; conditions: Mannheimia haemolytica strain MH 13093, broth-microdilution; unit assumed
Outline: as §1

[4] = test system: Mannheimia haemolytica MH 6374 (ATCC 33396, reference strain); assay: MIC, broth-microdilution (CLSI VET01-A4), strain MH 6374; conditions: Mannheimia haemolytica strain MH 6374, broth-microdilution; unit assumed
Outline: as §1

[5] = test system: Mannheimia haemolytica MH 12587 (1071, BRD field isolate, macrolide-resistance: erm+, E+); assay: MIC, broth-microdilution (CLSI VET01-A4), strain MH 12587; conditions: Mannheimia haemolytica strain MH 12587, broth-microdilution; unit assumed
Outline: as §1

[6] = test system: Mannheimia haemolytica MH 13065 (XB0446-6003.9, BRD field isolate); assay: MIC, broth-microdilution (CLSI VET01-A4), strain MH 13065; conditions: Mannheimia haemolytica strain MH 13065, broth-microdilution; unit assumed
Outline: as §1

[7] = test system: Mannheimia haemolytica MH 10720 (154, BRD field isolate); assay: MIC, broth-microdilution (CLSI VET01-A4), strain MH 10720; conditions: Mannheimia haemolytica strain MH 10720, broth-microdilution; unit assumed
Outline: as §1

[8] = test system: Pasteurella multocida PM 6267 (P 2225 (L386), reference strain, mouse infection strain); assay: MIC, broth-microdilution (CLSI VET01-A4), strain PM 6267; conditions: Pasteurella multocida strain PM 6267, broth-microdilution; unit assumed
Outline: as §1

[9] = test system: Pasteurella multocida PM 12080 (IV102277-0093, BRD field isolate); assay: MIC, broth-microdilution (CLSI VET01-A4), strain PM 12080; conditions: Pasteurella multocida strain PM 12080, broth-microdilution; unit assumed
Outline: as §1

[10] = test system: Pasteurella multocida PM 6391 (ATCC 43137, reference strain); assay: MIC, broth-microdilution (CLSI VET01-A4), strain PM 6391; conditions: Pasteurella multocida strain PM 6391, broth-microdilution; unit assumed
Outline: as §1

Row | SMILES | MIC PM 10775 [1] | MIC MH 6357 [2] | MIC MH 13093 [3] | MIC MH 6374 [4] | MIC MH 12587 [5] | MIC MH 13065 [6] | MIC MH 10720 [7] | MIC PM 6267 [8] | MIC PM 12080 [9] | MIC PM 6391 [10]
1 | CC[C@H](C)[C@H](NC(=O)c1ccc(C#Cc2ccc(CN3CCCCC3)cc2)cc1)C(=O)NO [Compound 187] | ≤ 0.1 µg/mL | 3.1 µg/mL (≈ 6.93 µM) | 6.3 µg/mL (≈ 14.1 µM) | 12.5 µg/mL (≈ 27.9 µM) | 12.5 µg/mL (≈ 27.9 µM) | 6.3 µg/mL (≈ 14.1 µM) | 1.6 µg/mL (≈ 3.57 µM) | 0.4 µg/mL (≈ 0.894 µM) | 0.8 µg/mL (≈ 1.79 µM) | 1.6 µg/mL (≈ 3.57 µM)
2 | CC[C@H](C)[C@H](NC(=O)c1ccc(C#Cc2ccc(CNCc3ccnc(Cl)c3)cc2)cc1)C(=O)NO [Compound 190] | ≤ 0.1 µg/mL | 1.6 µg/mL (≈ 3.17 µM) | 1.6 µg/mL (≈ 3.17 µM) | 3.1 µg/mL (≈ 6.14 µM) | 3.1 µg/mL (≈ 6.14 µM) | 1.6 µg/mL (≈ 3.17 µM) | 0.4 µg/mL (≈ 0.792 µM) | ≤ 0.1 µg/mL | 0.2 µg/mL (≈ 0.396 µM) | 0.4 µg/mL (≈ 0.792 µM)
3 | CC[C@H](C)[C@H](NC(=O)c1ccc(C#Cc2ccc(CN3CC(C)OC(C)C3)cc2)cc1)C(=O)NO (some centres unmarked) [Compound 191] | ≤ 0.1 µg/mL | 6.3 µg/mL (≈ 13.2 µM) | 12.5 µg/mL (≈ 26.2 µM) | 25 µg/mL (≈ 52.3 µM) | 25 µg/mL (≈ 52.3 µM) | 6.3 µg/mL (≈ 13.2 µM) | 1.6 µg/mL (≈ 3.35 µM) | ≤ 0.1 µg/mL | ≤ 0.1 µg/mL | ≤ 0.1 µg/mL
4 | CCCNCc1ccc(C#Cc2ccc(C(=O)N[C@H](C(=O)NO)[C@@H](C)CC)cc2)cc1 [Compound 193] | ≤ 0.1 µg/mL | 6.3 µg/mL (≈ 14.9 µM) | 3.1 µg/mL (≈ 7.35 µM) | 6.3 µg/mL (≈ 14.9 µM) | 6.3 µg/mL (≈ 14.9 µM) | 3.1 µg/mL (≈ 7.35 µM) | 0.8 µg/mL (≈ 1.9 µM) | 0.4 µg/mL (≈ 0.949 µM) | 0.4 µg/mL (≈ 0.949 µM) | 0.8 µg/mL (≈ 1.9 µM)
5 | CC[C@H](C)[C@H](NC(=O)c1ccc(C#Cc2ccc(CNC3CCCCC3)cc2)cc1)C(=O)NO [Compound 195] | ≤ 0.1 µg/mL | 6.3 µg/mL (≈ 13.6 µM) | 12.5 µg/mL (≈ 27.1 µM) | 12.5 µg/mL (≈ 27.1 µM) | 12.5 µg/mL (≈ 27.1 µM) | 6.3 µg/mL (≈ 13.6 µM) | 1.6 µg/mL (≈ 3.47 µM) | 0.2 µg/mL (≈ 0.433 µM) | 0.4 µg/mL (≈ 0.867 µM) | 0.8 µg/mL (≈ 1.73 µM)
6 | CC[C@H](C)[C@H](NC(=O)c1ccc(C#Cc2ccc(CNC3CCCC3)cc2)cc1)C(=O)NO [Compound 196] | ≤ 0.1 µg/mL | 6.3 µg/mL (≈ 14.1 µM) | 12.5 µg/mL (≈ 27.9 µM) | 12.5 µg/mL (≈ 27.9 µM) | 12.5 µg/mL (≈ 27.9 µM) | 6.3 µg/mL (≈ 14.1 µM) | 1.6 µg/mL (≈ 3.57 µM) | 0.2 µg/mL (≈ 0.447 µM) | 0.4 µg/mL (≈ 0.894 µM) | 0.8 µg/mL (≈ 1.79 µM)
7 | CC[C@H](C)[C@H](NC(=O)c1ccc(C#Cc2ccc(CNC3CCC3)cc2)cc1)C(=O)NO [Compound 197] | ≤ 0.1 µg/mL | 1.6 µg/mL (≈ 3.69 µM) | 3.1 µg/mL (≈ 7.15 µM) | 3.1 µg/mL (≈ 7.15 µM) | 6.3 µg/mL (≈ 14.5 µM) | 1.6 µg/mL (≈ 3.69 µM) | 0.4 µg/mL (≈ 0.923 µM) | ≤ 0.1 µg/mL | 0.2 µg/mL (≈ 0.461 µM) | 0.4 µg/mL (≈ 0.923 µM)
8 | COCC(C)NCc1ccc(C#Cc2ccc(C(=O)N[C@H](C(=O)NO)C(C)C)cc2)cc1 (some centres unmarked) [Compound 198] | ≤ 0.1 µg/mL | 3.1 µg/mL (≈ 7.09 µM) | 6.3 µg/mL (≈ 14.4 µM) | 6.3 µg/mL (≈ 14.4 µM) | 12.5 µg/mL (≈ 28.6 µM) | 3.1 µg/mL (≈ 7.09 µM) | 0.8 µg/mL (≈ 1.83 µM) | ≤ 0.1 µg/mL | 0.2 µg/mL (≈ 0.457 µM) | 0.4 µg/mL (≈ 0.914 µM)
9 | CC(C)[C@H](NC(=O)c1ccc(C#Cc2ccc(CNCc3nccs3)cc2)cc1)C(=O)NO [Compound 199] | ≤ 0.1 µg/mL | 0.2 µg/mL (≈ 0.432 µM) | 0.4 µg/mL (≈ 0.865 µM) | 0.4 µg/mL (≈ 0.865 µM) | 0.4 µg/mL (≈ 0.865 µM) | 0.2 µg/mL (≈ 0.432 µM) | ≤ 0.1 µg/mL | ≤ 0.1 µg/mL | ≤ 0.1 µg/mL | ≤ 0.1 µg/mL
10 | CC(C)[C@H](NC(=O)c1ccc(C#Cc2ccc(CNCC3CCCO3)cc2)cc1)C(=O)NO (some centres unmarked) [Compound 200] | ≤ 0.1 µg/mL | 6.3 µg/mL (≈ 14 µM) | 3.1 µg/mL (≈ 6.9 µM) | 3.1 µg/mL (≈ 6.9 µM) | 6.3 µg/mL (≈ 14 µM) | 1.6 µg/mL (≈ 3.56 µM) | 0.8 µg/mL (≈ 1.78 µM) | ≤ 0.1 µg/mL | 0.2 µg/mL (≈ 0.445 µM) | 0.2 µg/mL (≈ 0.445 µM)
11 | CCNCc1ccc(C#Cc2ccc(C(=O)N[C@H](C(=O)NO)C(C)C)cc2)cc1 [Compound 201] | ≤ 0.1 µg/mL | 12.5 µg/mL (≈ 31.8 µM) | 6.3 µg/mL (≈ 16 µM) | 6.3 µg/mL (≈ 16 µM) | 12.5 µg/mL (≈ 31.8 µM) | 6.3 µg/mL (≈ 16 µM) | 3.1 µg/mL (≈ 7.88 µM) | 0.4 µg/mL (≈ 1.02 µM) | 0.4 µg/mL (≈ 1.02 µM) | 0.8 µg/mL (≈ 2.03 µM)
